Consider one molecule from ChEMBL document CHEMBL3758093, “Sulfonamide inhibition studies of the β-carbonic anhydrase from the pathogenic bacterium Vibrio cholerae” (Bioorg Med Chem, 2016).

In this assay the target is Carbonic anhydrase 1 (Homo sapiens, UniProt P00915).
Chain of Carbonic anhydrase 1 (P00915 whole entry): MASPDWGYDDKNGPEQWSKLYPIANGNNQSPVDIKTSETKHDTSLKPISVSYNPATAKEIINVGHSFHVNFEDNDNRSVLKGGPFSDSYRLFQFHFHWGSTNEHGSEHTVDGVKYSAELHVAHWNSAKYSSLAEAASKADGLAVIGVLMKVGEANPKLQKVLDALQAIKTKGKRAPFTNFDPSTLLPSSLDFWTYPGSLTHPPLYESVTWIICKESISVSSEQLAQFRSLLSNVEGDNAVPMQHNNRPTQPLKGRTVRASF

As to `NS(=O)(=O)c1cccc(S(N)(=O)=O)c1`, the affinity corresponds to a Ki of 28 µM.
